In patent US6241965A, “Somatostatin derivatives and their radiolabelled products” (Diatide, Inc., priority 1996, dated 2001) one finds Ki data, which are given here for 23 compounds.

The term pKi denotes the negative decadic logarithm of the Ki, by convention in mol/L. High values mean a low Ki, low ones a high Ki.

pKi: −log10 of the molar value. Starred links: 1 amine or outer side, 2 acyl side, 3 side chain; linkers in the order of their positions; H or OH if unused. Positions of bridges follow the written chain, without caps; N, C: chain ends. Non-standard residues stand in square brackets, D forms with d. Residues, ends and D or L forms follow the SMILES beside them. Chains are numbered I, II in the order given. *: point of attachment. DTPA = O=C(O)CN(CCN(CC(=O)O)CC(=O)O)CCN(CC(=O)O)CC(=O)*; X1 = O=C(C(=O)*)[C@@H](O)[C@H](O)[C@@H](O)CO; Phe(4-Cl) = N[C@@H](Cc1ccc(Cl)cc1)C(=O)O; 2Nal = N[C@@H](Cc1ccc2ccccc2c1)C(=O)O; d2Nal = N[C@H](Cc1ccc2ccccc2c1)C(=O)O; εLys = N[C@@H](CCCCN[*:1])C(=O)[*:2]; NMeF = CN[C@@H](Cc1ccccc1)C(=O)O; hCys = N[C@@H](CCS)C(=O)O; X2 = O=C(C[*:1])[*:2]; Acm = CC(=O)NC*

T1 sequence (P30680 whole entry): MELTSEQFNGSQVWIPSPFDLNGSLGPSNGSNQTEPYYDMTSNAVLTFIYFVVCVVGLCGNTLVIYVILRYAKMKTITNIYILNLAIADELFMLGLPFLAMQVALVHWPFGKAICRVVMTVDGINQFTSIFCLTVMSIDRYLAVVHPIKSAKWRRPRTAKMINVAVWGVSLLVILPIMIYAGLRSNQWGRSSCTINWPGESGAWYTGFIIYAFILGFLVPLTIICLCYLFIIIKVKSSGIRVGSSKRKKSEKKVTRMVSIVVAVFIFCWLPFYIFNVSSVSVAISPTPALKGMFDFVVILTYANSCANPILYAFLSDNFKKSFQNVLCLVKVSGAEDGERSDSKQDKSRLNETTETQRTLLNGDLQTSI

The first test concerns the target T1, somatostatin receptors (Rattus norvegicus, UniProt P30680).
T1 construct: endogenous in cells; host or cells: AR42J rat pancreatic tumor cell membranes
In words: Inhibition of binding of (125I-Tyr11)somatostatin-14 to AR42J rat pancreatic tumor cell membranes. As to conditions: (Re=O)-complexed peptides; displacement of (125I-Tyr11)somatostatin-14, AR42J cell membranes. The method, then:
Inhibition of Binding of (^125 I-Tyr^11)somatostatin-14 to AR42J Rat Pancreatic Tumor Cell Membranes
The rat pancreatic tumor cell line AR42J which expresses the somatostatin receptor was cultured in Dulbecco's minimal essential media (DMEM) supplemented with 10% fetal bovine serum (FBS) and 8 mM glutamine in a humdified 5% CO2 atmosphere at 37° C. in T-flasks. Harvested cells were homogenized in cold 50 mM Tris-HCl buffer (pH 7.4) and the homogenate then centrifuged at 39,000g for 10 min at 4° C. Pellets were washed once with buffer and then resuspended in an ice-cold solution of 10mM Tris-HCl (pH 7.4). Equal aliquots of this cell membrane preparation were incubated with (^125 I-Tyr^11)somatostatin-14 (at a final concentration of 0.5nM and 750,000cpm/mL, at a specific activity of 2000Ci/mmol, Amersham, Arlington Heights, Ill.) and peptide at a final concentration of from 10^-11 M to 10^-6 M in a solution of 50 mM HEPES (pH 7.4) containing 1% bovine serum albumin (BSA), 5 mM MgCl2, Trasylol (200,000 International Units), bacitracin (0.02 mg/mL) and phenylmethylsulfonylfluoride (0.02 mg/mL) for 25 min at 30° C. Using a filtration manifold, this mixture was filtered through a polyethyleneimine-washed GC/F filter (Whatman, Maidstone, England), and the residue remaining on the filter washed thrice with 5 mL cold HEPES buffer. The filter and a sample of the filter washings were then counted in a gamma counter. To assess non-specific binding, the assay was performed in the presence of unlabeled somatostatin-14 at 200 nM. Data analysis including Hill plots of the data provided inhibition constants (see Bylund & Yamamura, "Methods of receptor binding", in Methods in Neurotransmitter Receptor Analysis, Yamamura et al., eds., Raven Press: New York, 1990).
Turning to KD KK.NalD.Cpa.YWD KTFT(ε-K)GCDD.amide, the negative-log Ki (pKi) is 8.80.

Compound Ac.DD DFD.Cpa.YWD KTFT(ε-K)GCKK.amide had a pKi of 8.85.

Consider Ac.FD FYWD KTFTGGG(ε-K)KC.amide, for which the negative-log Ki (pKi) is 8.21. Regarding FD.Cpa.YWD KTC(ε-K)GCKK.amide, the pKi was 9.89. This pKi lies 1.68 log units higher than the previous one.

(DTPA).NalD.Cpa.YWD KTFT(ε-K)GC.amide gave a pKi of 7.96. As for (DTPA).Aca.FD.Cpa.YWD KTFT(ε-K)GC.amide, the pKi was 8.09.

FD.Cpa.YWD KTC(ε-K)GC.amide showed a pKi of 9.44. This pKi lies 1.35 log units higher than the previous one. For `C[C@@H](O)[C@H](NC(=O)[C@H](Cc1ccccc1)NC(=O)[C@@H](NC(=O)[C@H](CCCCN)NC(=O)[C@@H](Cc1c[nH]c2ccccc12)NC(=O)[C@H](Cc1ccc(O)cc1)NC(=O)[C@H](Cc1ccc(Cl)cc1)NC(=O)[C@@H](Cc1ccccc1)NC(=O)C(=O)[C@@H](O)[C@H](O)[C@@H](O)CO)[C@@H](C)O)C(=O)NCCCC[C@H](N)C(=O)NCC(=O)N[C@@H](CS)C(N)=O` [(2-ketogulonyl)FD.Cpa.YWD KTFT(ε-K)GC.amide] (X1-[dF][Phe(4-Cl)]Y[dW]KTFT[εLys]GC-NH2), the pKi was 8.43.

As for (DTPA).FD.Cpa.YWD KTFT(ε-K)GC.amide, the negative logarithm of the Ki (pKi) is 8.10. This pKi lies 0.33 log units lower than the previous one. For the compound FD.Cpa.YWD KTC(ε-K)CGC.amide, the pKi is 9.43. `CC(=O)NCSC[C@H](NC(=O)CNC(=O)[C@H](CSCNC(C)=O)NC(=O)[C@@H](NC(=O)[C@H](Cc1ccccc1)NC(=O)[C@@H](NC(=O)[C@H](CCCCN)NC(=O)[C@@H](Cc1c[nH]c2ccccc12)NC(=O)[C@H](Cc1ccc(O)cc1)NC(=O)[C@H](Cc1ccc(Cl)cc1)NC(=O)[C@@H](Cc1ccc2ccccc2c1)NC(=O)CN(CCN(CCN(CC(=O)O)CC(=O)O)CC(=O)O)CC(=O)O)[C@@H](C)O)[C@@H](C)O)C(N)=O` [(DTPA)NalD.Cpa.YWD KTFTCAcm GCAcm.amide] ({DTPA}-[d2Nal][Phe(4-Cl)]Y[dW]KTFTC(Acm)GC(Acm)-NH2): the negative logarithm of the Ki (pKi) was 8.51.

Compound KD KK.NalD.Cpa.YWD KTFT(ε-K)GCDDD.amide gave a negative-log Ki (pKi) of 8.82. The same measure, in the same setting: the figure for NalD.Cpa.YWD KTFT(ε-K)GCKK.amide is 8.66; for “KD KKKFD.Cpa.YWD KTF.Nal.(ε-K)GCDDDD.amide” it is 8.09; for Hca.NalD.Cpa.YWD KTFT(ε-K)GCKK, amide it is 8.10. With DD DFD.Cpa.YWD KTFT(ε-K)GCKK.amide, the pKi was 9.30.

“KDKKK.NalD.Cpa.YWD KTFT(ε-K)GCKDKD.amide” showed a negative-log Ki (pKi) of 8.42.

The test is the same for the next values; noted with them: peptides not metal-complexed; displacement of (125I-Tyr11)somatostatin-14, AR42J cell membranes.
On to “KD KKK.NalD.Cpa.YWD KTFT(ε-K)GCKDKD.amide”, for which the pKi is 8.31. Same read-out and setting: the figure for `C[C@@H](O)[C@H](NC(=O)[C@H](Cc1ccc2ccccc2c1)NC(=O)[C@@H](NC(=O)[C@H](CCCCN)NC(=O)[C@@H](Cc1c[nH]c2ccccc12)NC(=O)[C@H](Cc1ccc(O)cc1)NC(=O)[C@H](Cc1ccc(Cl)cc1)NC(=O)[C@@H](Cc1ccc2ccccc2c1)NC(=O)CN(CCN(CCN(CC(=O)O)CC(=O)O)CC(=O)O)CC(=O)O)[C@@H](C)O)C(=O)NCCCC[C@H](N)C(=O)NCC(=O)N[C@@H](CS)C(=O)N[C@@H](CCCCN)C(=O)N[C@@H](CCCCN)C(N)=O` [(DTPA)NalD.Cpa.YWD KT.Nal.T(ε-K)GCKK.amide] ({DTPA}-[d2Nal][Phe(4-Cl)]Y[dW]KT[2Nal]T[εLys]GCKK-NH2) is 8.70; for `C[C@H](N)C(=O)N[C@@H](CCCCN)C(=O)N[C@@H](CS)C(=O)NCC(=O)NCC(=O)NCC(=O)N[C@H](Cc1ccccc1)C(=O)N[C@@H](Cc1ccc(Cl)cc1)C(=O)N[C@@H](Cc1ccc(O)cc1)C(=O)N[C@H](Cc1c[nH]c2ccccc12)C(=O)N[C@@H](CCCCN)C(=O)N[C@H](C(=O)N[C@@H](Cc1ccccc1)C(=O)N[C@H](C(N)=O)[C@@H](C)O)[C@@H](C)O` [AKCGGGFD.Cpa.YWD KTFT.amide] (H-AKCGGG[dF][Phe(4-Cl)]Y[dW]KTFT-NH2) it is 8.85; for `C[C@@H](O)[C@H](NC(=O)[C@H](Cc1ccccc1)NC(=O)[C@@H](NC(=O)[C@H](CCCCN)NC(=O)[C@@H](Cc1c[nH]c2ccccc12)NC(=O)[C@H](Cc1ccc(O)cc1)NC(=O)[C@H](Cc1ccc(Cl)cc1)NC(=O)[C@@H](Cc1ccccc1)NC(=O)C(=O)[C@@H](O)[C@H](O)[C@@H](O)CO)[C@@H](C)O)C(=O)NCCCC[C@H](N)C(=O)NCC(=O)N[C@@H](CS)C(N)=O` [(2-ketogulonyl)FD.Cpa.YWD KTFT(ε-K)GC.amide] (X1-[dF][Phe(4-Cl)]Y[dW]KTFT[εLys]GC-NH2) it is 8.57. Compound `CC(C)[C@@H]1NC(=O)[C@H](CCCCN)NC(=O)[C@@H](Cc2c[nH]c3ccccc23)NC(=O)[C@H](Cc2ccc(O)cc2)NC(=O)[C@H](Cc2ccccc2)N(C)C(=O)[C@H](CCSCC(=O)NCC(=O)NCC(=O)N[C@@H](CS)C(=O)N[C@@H](CCCCN)C(=O)N[C@@H](CCCCN)C(N)=O)NC1=O` [cyclo(N-Me)FYWD KV.Hcy(CH2 CO.GGCKK.amide)] (I: cyclo([NMeF]Y[dW]KV[hCys]) / II: GGCKK-NH2; linker I:6-II:N via X2) gave a pKi of 9.59. On the same count and under the same terms, the figure for `C[C@@H](O)[C@H](NC(=O)[C@H](Cc1ccccc1)NC(=O)[C@@H](NC(=O)[C@H](CCCCN)NC(=O)[C@@H](Cc1c[nH]c2ccccc12)NC(=O)[C@H](Cc1ccc(O)cc1)NC(=O)[C@H](Cc1ccc(Cl)cc1)NC(=O)[C@H](N)Cc1ccccc1)[C@@H](C)O)C(=O)N[C@@H](CS)C(=O)NCC(=O)N[C@@H](CS)C(N)=O` [FD.Cpa.YWD KTFTCGC.amide] (H-[dF][Phe(4-Cl)]Y[dW]KTFTCGC-NH2) is 8.32. Regarding `CC(C)[C@H](NC(=O)[C@H](CCCCN)NC(=O)[C@@H](Cc1c[nH]c2ccccc12)NC(=O)[C@H](Cc1ccc(O)cc1)NC(=O)[C@H](CS)NC(=O)[C@@H](Cc1ccc2ccccc2c1)NC(=O)CN(CCN(CCN(CC(=O)O)CC(=O)N[C@H](Cc1ccc2ccccc2c1)C(=O)N[C@@H](CS)C(=O)N[C@@H](Cc1ccc(O)cc1)C(=O)N[C@H](Cc1c[nH]c2ccccc12)C(=O)N[C@@H](CCCCN)C(=O)N[C@H](C(=O)N[C@@H](CS)C(=O)N[C@H](C(N)=O)[C@@H](C)O)C(C)C)CC(=O)O)CC(=O)O)C(=O)N[C@@H](CS)C(=O)N[C@H](C(N)=O)[C@@H](C)O` [(DTPA)(NalD.CYWD KVCT)2], the pKi is 8.14.
